Test results taken from ChEMBL document CHEMBL3045895 (Med Chem Res, 2012).
Calls of active or inactive are those of the source. The rule behind the calls is not given here.

Assays:
[1] = biological target: T1, Beta-glucuronidase (Homo sapiens) (UniProt P08236); assay: Inhibition of beta-glucuronidase (unknown origin) using p-nitrophenyl-beta-D-glucuronide as substrate at 500 uM incubated for 30 min prior to substrate addition by spectrophotometric analysis
T1 sequence (whole entry): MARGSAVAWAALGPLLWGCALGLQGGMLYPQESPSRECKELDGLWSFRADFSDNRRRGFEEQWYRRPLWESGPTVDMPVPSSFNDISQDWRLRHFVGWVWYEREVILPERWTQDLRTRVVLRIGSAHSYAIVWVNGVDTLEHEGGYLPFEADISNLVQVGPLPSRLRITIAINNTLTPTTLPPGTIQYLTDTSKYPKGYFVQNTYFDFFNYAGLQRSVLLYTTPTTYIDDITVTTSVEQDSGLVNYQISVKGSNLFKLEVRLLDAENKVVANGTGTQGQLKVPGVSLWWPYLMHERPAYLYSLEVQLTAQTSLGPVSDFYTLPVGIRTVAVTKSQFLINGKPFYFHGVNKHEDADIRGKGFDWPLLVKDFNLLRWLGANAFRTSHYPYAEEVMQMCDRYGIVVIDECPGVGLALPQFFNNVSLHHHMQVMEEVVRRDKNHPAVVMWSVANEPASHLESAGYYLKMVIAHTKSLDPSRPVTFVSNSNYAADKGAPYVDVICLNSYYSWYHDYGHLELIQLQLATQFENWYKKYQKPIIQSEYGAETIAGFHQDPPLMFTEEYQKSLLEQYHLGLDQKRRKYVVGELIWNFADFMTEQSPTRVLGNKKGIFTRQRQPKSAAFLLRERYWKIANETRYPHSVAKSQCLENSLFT

[2] = biological target: Acetylcholinesterase (Homo sapiens) (UniProt P22303); assay: Inhibition of acetylcholinesterase (unknown origin) using acetylthiocholine iodide as substrate at 500 uM incubated for 15 min prior to substrate addition measured for 15 min by spectrophotometric analysis
Chain of Acetylcholinesterase (Homo sapiens) (P22303 whole entry): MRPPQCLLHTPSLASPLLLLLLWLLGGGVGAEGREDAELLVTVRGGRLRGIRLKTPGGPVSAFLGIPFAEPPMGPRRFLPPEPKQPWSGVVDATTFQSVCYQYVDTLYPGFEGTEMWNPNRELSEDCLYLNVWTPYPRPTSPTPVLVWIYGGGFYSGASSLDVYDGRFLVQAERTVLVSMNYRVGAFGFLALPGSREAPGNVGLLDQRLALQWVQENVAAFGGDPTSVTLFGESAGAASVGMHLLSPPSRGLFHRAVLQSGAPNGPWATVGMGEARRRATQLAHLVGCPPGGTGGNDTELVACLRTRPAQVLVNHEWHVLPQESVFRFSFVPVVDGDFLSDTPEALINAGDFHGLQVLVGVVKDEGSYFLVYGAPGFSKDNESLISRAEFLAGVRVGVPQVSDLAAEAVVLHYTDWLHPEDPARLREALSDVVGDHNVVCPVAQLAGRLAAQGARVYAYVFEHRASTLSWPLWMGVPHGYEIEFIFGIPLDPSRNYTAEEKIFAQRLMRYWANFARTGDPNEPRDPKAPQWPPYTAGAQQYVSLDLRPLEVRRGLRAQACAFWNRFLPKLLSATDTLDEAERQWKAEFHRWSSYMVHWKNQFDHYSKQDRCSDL

Homo sapiens = species: Homo sapiens; assay: Inhibition of alpha-chymotrypsin (unknown origin) using N-succinyl-phenylalanine-p-nitroanilide as substrate at 500 uM incubated for 25 min prior to substrate by spectrophotometric analysis
Cholinesterase [3] = biological target: T2, Cholinesterase (Homo sapiens, UniProt P06276); assay: Inhibition of butyrylcholinesterase (unknown origin) using butyrylthiocholine chloride as substrate incubated for 15 min prior to substrate addition measured for 15 min by spectrophotometric analysis
T2 sequence (P06276 whole entry): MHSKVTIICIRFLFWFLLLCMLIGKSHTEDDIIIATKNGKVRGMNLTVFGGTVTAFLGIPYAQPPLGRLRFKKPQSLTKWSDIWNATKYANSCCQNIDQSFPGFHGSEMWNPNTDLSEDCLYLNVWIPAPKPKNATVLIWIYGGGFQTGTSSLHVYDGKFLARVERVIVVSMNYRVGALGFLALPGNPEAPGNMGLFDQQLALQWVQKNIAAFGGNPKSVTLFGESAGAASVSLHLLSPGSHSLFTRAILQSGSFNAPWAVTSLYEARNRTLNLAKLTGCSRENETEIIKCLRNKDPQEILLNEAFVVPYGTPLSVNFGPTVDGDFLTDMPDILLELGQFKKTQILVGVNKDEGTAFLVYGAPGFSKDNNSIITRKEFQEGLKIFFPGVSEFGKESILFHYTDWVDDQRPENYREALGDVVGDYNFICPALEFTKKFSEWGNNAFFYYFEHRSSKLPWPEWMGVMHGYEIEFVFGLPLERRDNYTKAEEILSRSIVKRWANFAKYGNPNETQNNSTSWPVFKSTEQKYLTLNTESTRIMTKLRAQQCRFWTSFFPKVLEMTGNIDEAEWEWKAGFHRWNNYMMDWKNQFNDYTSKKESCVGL

[4] = biological target: Urease (Canavalia ensiformis) (UniProt P07374); assay: Inhibition of Canavalia ensiformis (jack bean) urease using urea as substrate at 500 uM after 15 min by indophenol-based spectrophotometric analysis
Chain of Urease (Canavalia ensiformis) (P07374 whole entry, looked up): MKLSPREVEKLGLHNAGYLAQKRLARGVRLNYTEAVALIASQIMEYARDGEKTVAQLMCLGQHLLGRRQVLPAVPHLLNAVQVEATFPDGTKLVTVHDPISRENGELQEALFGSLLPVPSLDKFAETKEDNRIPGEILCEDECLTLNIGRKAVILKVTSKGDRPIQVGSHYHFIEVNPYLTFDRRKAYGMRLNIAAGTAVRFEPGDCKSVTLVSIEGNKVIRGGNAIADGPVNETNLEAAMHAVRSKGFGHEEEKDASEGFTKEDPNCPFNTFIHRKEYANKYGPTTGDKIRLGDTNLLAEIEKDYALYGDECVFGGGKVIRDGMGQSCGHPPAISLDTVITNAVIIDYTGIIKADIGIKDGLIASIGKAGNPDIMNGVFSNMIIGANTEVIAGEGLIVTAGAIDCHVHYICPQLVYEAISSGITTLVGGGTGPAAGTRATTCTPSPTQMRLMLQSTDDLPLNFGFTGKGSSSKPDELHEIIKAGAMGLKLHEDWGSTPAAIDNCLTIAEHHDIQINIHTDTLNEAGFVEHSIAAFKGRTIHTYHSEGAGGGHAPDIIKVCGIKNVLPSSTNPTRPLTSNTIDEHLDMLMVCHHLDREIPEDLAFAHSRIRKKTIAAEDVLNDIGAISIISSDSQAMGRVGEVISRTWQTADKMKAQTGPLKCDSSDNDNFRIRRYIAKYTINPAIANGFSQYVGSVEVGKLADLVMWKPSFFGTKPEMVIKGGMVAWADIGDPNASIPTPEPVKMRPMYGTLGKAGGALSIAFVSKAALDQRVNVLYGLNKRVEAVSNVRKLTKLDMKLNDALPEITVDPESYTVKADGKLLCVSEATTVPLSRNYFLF

Cholinesterase [5] = biological target: T2, Cholinesterase; assay: Inhibition of butyrylcholinesterase (unknown origin) using butyrylthiocholine chloride as substrate at 500 uM incubated for 15 min prior to substrate addition measured for 15 min by spectrophotometric analysis
Urease = Urease (Canavalia ensiformis, UniProt P07374); assay: Inhibition of Canavalia ensiformis (jack bean) urease using urea as substrate after 15 min by indophenol-based spectrophotometric analysis
Chain of Urease (P07374 whole entry): as the sequence (P07374 whole entry, looked up) above

Beta-glucuronidase = biological target: T3, Beta-glucuronidase (Homo sapiens, UniProt P08236); assay: Inhibition of beta-glucuronidase (unknown origin) using p-nitrophenyl-beta-D-glucuronide as substrate incubated for 30 min prior to substrate addition by spectrophotometric analysis
T3 sequence (P08236 whole entry): T1 sequence (whole entry)

Structure (SMILES)	inhibition [1]	inhibition [2]	inhibition (Homo sapiens)	IC50 (Cholinesterase [3])	inhibition [4]	inhibition (Cholinesterase [5])	IC50 (Urease)	IC50 (Beta-glucuronidase)
Cc1cc(CN(CCO)Cc2cc(C)n(C)n2)nn1C	inactive	inactive	inactive	68 µM	inactive			
Cc1cc(C)n(CN(Cn2nc(C)cc2C)C2CCCCC2)n1		inactive	inactive			inactive	43.5 µM	457 µM
Cc1cc(C)n(CN(CCO)Cn2nc(C)cc2C)n1	inactive	inactive	inactive			inactive	44.7 µM	
Cc1cc(C)n(CO)n1	inactive	inactive	inactive			inactive	94.3 µM	
